# Columns and labels:
# Assay type in all cases: cell-based, mouse
# Conditions in all cases: dexamethasone 1 μM
# C2C12 myotubes = experiment: Diameter (thickness) of C2C12 myotubes, dexamethasone-induced muscle atrophy
# Protocol: C2C12 mouse myoblasts acquired from the Korean Collection for Type Cultures of the Korea Research Institute of Bioscience and Biotechnology were induced to divide for a total of 6 times (3 times×2 days). After the division was completed sufficiently, the C2C12 cells were seeded onto a 12-well plate and then divided for 2 days. As a division medium, HyClone™ DMEM/high glucose supplemented with 10% FBS (fetal bovine serum) and 1% penicillin was used.
# When each well of the 12-well plate reached 90% confluency, the cells were treated with a differentiation medium (HyClone™ DMEM/high glucose supplemented with 2% HS (horse serum) and 1% penicillin). The differentiation medium was replaced every 2 days, and the treatment was performed for 6 days. Then, the differentiation-induced C2C12 myotubes were treated with HyClone™ supplemented with 1% penicillin for 24 hours and then subjected to the following experiment.
# Dexamethasone induces muscle atrophy by inhibiting muscle synthesis and inducing protein degradation. […]
# After treating the control groups and test groups for 48 hours in Example 2-2, the cells were imaged using the automated cell imaging system JuLi™ Stage and the thickness of the imaged cells was measured using the cell processing program Image J, with 50 cells per group.
# atrogin-1/MAFbx = experiment: Western blotting of atrogin-1/MAFbx in C2C12 myotubes
# Text: (§1) Dexamethasone induces muscle atrophy by inhibiting muscle synthesis and inducing protein degradation. The effect of preventing and improving muscle atrophy of the lycii radicis cortex extract was investigated by inducing muscle atrophy by treating the differentiation-induced C2C12 cells of Example 2-1 with dexamethasone and then treating the muscle atrophy-induced cells with the lycii radicis cortex extract. Detailed experimental conditions are as follows.
# (§2) (1) Control: The differentiated C2C12 cells were treated only with DMEM/high glucose supplemented with 1% penicillin for 48 hours.
# (§3) (2) Negative control: The C2C12 cells were treated with DMEM/high glucose supplemented with 1% penicillin and 1 μM dexamethasone for 48 hours.
# (§4) (3) Control+lycii radicis cortex extract: The cells were treated with 30 μg/mL of the lycii radicis cortex extract for 48 hours under the same condition as the control of (1).
# (§5) (4) Negative control+lycii radicis cortex extract: The cells were treated with 30 μg/mL of the lycii radicis cortex extract for 48 hours under the same condition as the negative control of (2). […]
# MuRF-1 = experiment: Western blotting of MuRF-1 in C2C12 myotubes
# Text: as §1, §2, §3, §4, §5
compound,measurement,setting,value
C[C@@H]1C[C@H]2[C@@H]3CCC4=CC(=O)C=C[C@]4(C)[C@@]3(F)[C@@H](O)C[C@]2(C)[C@@]1(O)C(=O)CO [dexamethasone],Average thickness (μm) of 50 cells,"C2C12 myotubes; 48 hours, C2C12 myotubes",7.5933 μm
same,decrease in thickness as compared to the control group,C2C12 myotubes; p<0.005,30.54%
same,increase of activity of atrogin-1/MAFbx as compared to the control group,atrogin-1/MAFbx,3.404 fold
same,Atrogin-1/MAFbx vs. GAPDH,"atrogin-1/MAFbx; 48 hours, Control = 100",340.3945
same,increase of activity of MuRF-1 as compared to the control group,MuRF-1,3.513 fold
same,MuRF-1 vs. GAPDH,"MuRF-1; 48 hours, Control = 100",351.2904
